Laboratory results taken from patent US10000474B2, “Histone deacetylase inhibitors and uses thereof” (MUSC FOUNDATION FOR RESEARCH DEVELOPMENT, priority 2014, dated 2018).

Tests used:
Assay type in all cases: biochemical
Details in all cases: test concentration not given; average of triplicate
[1] = target: T1, Recombinant human HDAC8 (Homo sapiens, UniProt Q9BY41); experiment: HDAC inhibitory assay, HDAC8 (Ac-RHK(Ac)K(Ac)-AMC substrate)
T1 construct: purchased BPS Biosciences
T1 sequence (Q9BY41 1-377): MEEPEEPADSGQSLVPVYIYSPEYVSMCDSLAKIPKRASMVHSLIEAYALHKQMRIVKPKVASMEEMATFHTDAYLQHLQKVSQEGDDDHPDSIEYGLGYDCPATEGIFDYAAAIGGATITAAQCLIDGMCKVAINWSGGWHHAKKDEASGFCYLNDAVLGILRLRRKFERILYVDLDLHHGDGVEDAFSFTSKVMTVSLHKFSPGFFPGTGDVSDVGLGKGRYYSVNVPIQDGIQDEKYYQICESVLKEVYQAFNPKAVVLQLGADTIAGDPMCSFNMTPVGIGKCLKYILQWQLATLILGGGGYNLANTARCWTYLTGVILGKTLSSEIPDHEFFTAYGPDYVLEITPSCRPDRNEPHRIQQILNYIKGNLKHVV
Protocol: (§1) The compounds of Examples 1-12 and 14-16 were evaluated for their ability to act as inhibitors of human HDAC. The compound of Example 13 was not tested. Recombinant human HDAC1, HDAC2, HDAC3/NcoR2, HDAC5, HDAC6, HDAC8, HDAC9, HDAC10 and HDAC11 were purchased from BPS Biosciences. Recombinant human HDAC4 and HDAC7 were purchased from Millipore. The substrate Boc-Lys(Ac)-AMC and Boc-Lys(Tfa)-AMC were purchased from Bachem. The substrate Ac-RHK(Ac)K(Ac)-AMC was purchased from Enzo Life Sciences. Due to the different specific activities of each isoform, different amount of enzyme was used in each isoform screening assay. In these assays, trichostatin A (TSA), suberanilohydroxamic acid and diphenylacetohydroxamic acid (DPAHA) were employed as positive controls. All determinations were carried out in triplicate, and reported values were the average of these determinations, which in no case varied by more than 5%.
For evaluating the inhibition of HDAC8, 10 μl of test samples were first incubated with 25 ng HDAC8 (specific activity 298 pmol/min/μg). Then 25 μl of the fluorogenic peptide from p53 residues 379-382 (Ac-RHK(Ac)K(Ac)-AMC, 50 μM final concentration) was added and incubated at 37° C. for 30-60 min, and followed by adding 50 μl of developer (1 mg/ml trypsin and 1 uM TSA). The last step was to read the samples in a SpectraMax M5 plate reader (Molecular Devices) at an excitation wavelength of 360 nm and an emission wavelength of 460 nm.

[2] = target: T2, Recombinant human HDAC9 (Homo sapiens, UniProt Q9UKV0); experiment: HDAC inhibitory assay, HDAC9 (Boc-Lys(Tfa)-AMC substrate)
T2 construct: purchased BPS Biosciences
Protocol: as §1
(§2) For evaluating the inhibition of class IIa HDACs (HDAC4, HDAC5, HDAC7 and HDAC9) and class IV HDAC (HDAC11), 10 μl of test samples were first incubated with 1 ng HDAC4 (specific activity=15400 pmol/min/μg), 5 ng HDAC5 (specific activity=2521 pmol/min/μg), 1 ng HDAC7 (specific activity=26340 pmol/min/μg), 5 ng HDAC9 (specific activity=3000 pmol/min/μg), and 500 ng HDAC11 (specific activity=1.8 pmol/min/μg) respectively. Then 25 μl of the Boc-Lys(Tfa)-AMC substrate (50 μM final concentration) was added and incubated at 37° C. for 30-60 min, and followed by adding 50 μl of developer. The last step was to read the samples in a SpectraMax M5 plate reader (Molecular Devices) at an excitation wavelength of 360 nm and an emission wavelength of 460 nm.

[3] = target: T3, Recombinant human HDAC2 (Homo sapiens, UniProt Q92769); experiment: HDAC inhibitory assay, HDAC2 (Boc-Lys(Ac)-AMC substrate)
T3 construct: purchased BPS Biosciences
Protocol: as §1
(§3) Then 25 μl of the Boc-Lys(Ac)-AMC substrate (50 μM final concentration) was added and incubated at 37° C. for 30-60 min, and followed by adding 50 μl of developer (1 mg/ml trypsin and 1 μM TSA). The last step was reading the samples in a SpectraMax M5 plate reader (Molecular Devices) at an excitation wavelength of 360 nm and an emission wavelength of 460 nm.

[4] = target: T4, Recombinant human HDAC10 (Homo sapiens, UniProt Q969S8); experiment: HDAC inhibitory assay, HDAC10 (Boc-Lys(Ac)-AMC substrate)
T4 construct: purchased BPS Biosciences
T4 sequence (Q969S8 1-669): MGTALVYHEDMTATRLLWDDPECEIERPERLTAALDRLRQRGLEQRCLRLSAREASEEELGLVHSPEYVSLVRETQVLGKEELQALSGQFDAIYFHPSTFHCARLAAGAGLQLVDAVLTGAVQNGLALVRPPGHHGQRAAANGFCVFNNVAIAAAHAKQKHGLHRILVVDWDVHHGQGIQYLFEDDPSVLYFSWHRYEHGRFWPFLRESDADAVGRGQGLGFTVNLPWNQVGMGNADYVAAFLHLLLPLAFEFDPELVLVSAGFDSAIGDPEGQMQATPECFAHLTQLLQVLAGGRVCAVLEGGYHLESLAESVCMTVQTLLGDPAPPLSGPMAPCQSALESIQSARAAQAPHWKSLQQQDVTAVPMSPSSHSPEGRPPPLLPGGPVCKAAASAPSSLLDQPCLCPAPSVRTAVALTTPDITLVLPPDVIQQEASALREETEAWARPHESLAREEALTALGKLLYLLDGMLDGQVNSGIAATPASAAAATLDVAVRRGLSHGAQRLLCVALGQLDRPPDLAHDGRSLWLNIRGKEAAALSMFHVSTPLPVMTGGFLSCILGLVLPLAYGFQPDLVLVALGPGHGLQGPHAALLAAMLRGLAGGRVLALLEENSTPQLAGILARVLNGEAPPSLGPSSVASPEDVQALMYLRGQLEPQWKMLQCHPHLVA
Protocol: as §1, §3

[5] = target: T5, Recombinant human HDAC3/NcoR2 (Homo sapiens, UniProt O15379); experiment: HDAC inhibitory assay, HDAC3 (Boc-Lys(Ac)-AMC substrate)
T5 construct: purchased BPS Biosciences
Protocol: as §1, §3

[6] = target: T6, Recombinant human HDAC5 (Homo sapiens, UniProt Q9UQL6); experiment: HDAC inhibitory assay, HDAC5 (Boc-Lys(Tfa)-AMC substrate)
T6 construct: purchased BPS Biosciences
Protocol: as §1, §2

[7] = target: T7, Recombinant human HDAC1 (Homo sapiens, UniProt Q13547); experiment: HDAC inhibitory assay, HDAC1 (Boc-Lys(Ac)-AMC substrate)
T7 construct: purchased BPS Biosciences
Protocol: as §1, §3

T5 sequence (O15379 whole entry): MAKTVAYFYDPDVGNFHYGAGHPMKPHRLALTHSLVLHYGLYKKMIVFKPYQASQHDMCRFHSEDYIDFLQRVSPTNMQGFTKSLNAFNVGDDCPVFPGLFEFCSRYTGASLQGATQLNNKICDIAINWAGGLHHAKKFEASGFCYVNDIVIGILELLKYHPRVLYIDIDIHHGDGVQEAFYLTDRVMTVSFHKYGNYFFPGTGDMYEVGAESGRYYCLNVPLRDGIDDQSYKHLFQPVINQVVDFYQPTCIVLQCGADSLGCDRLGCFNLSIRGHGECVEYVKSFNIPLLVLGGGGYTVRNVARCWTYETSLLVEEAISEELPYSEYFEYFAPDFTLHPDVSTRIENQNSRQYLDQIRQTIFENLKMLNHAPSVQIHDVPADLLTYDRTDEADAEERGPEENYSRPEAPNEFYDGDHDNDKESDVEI
T5 sequence (Q9Y618 395-489 partner limits assumed): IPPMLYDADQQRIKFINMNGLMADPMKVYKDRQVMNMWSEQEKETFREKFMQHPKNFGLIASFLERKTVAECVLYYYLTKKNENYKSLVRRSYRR
T3 sequence (Q92769 whole entry): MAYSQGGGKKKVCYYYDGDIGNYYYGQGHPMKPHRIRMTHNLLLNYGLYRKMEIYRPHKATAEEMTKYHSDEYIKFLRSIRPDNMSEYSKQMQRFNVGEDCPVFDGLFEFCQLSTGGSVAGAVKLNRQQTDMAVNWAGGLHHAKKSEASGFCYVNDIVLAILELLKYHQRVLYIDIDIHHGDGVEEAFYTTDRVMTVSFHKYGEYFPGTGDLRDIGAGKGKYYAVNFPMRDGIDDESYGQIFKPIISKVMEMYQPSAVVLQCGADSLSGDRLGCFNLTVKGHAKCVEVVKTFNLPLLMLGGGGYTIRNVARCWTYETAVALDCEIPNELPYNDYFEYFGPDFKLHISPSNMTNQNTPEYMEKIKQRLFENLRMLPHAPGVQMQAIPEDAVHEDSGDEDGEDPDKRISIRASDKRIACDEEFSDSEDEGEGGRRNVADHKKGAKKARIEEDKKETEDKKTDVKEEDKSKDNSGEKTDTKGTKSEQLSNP
T7 sequence (Q13547 whole entry): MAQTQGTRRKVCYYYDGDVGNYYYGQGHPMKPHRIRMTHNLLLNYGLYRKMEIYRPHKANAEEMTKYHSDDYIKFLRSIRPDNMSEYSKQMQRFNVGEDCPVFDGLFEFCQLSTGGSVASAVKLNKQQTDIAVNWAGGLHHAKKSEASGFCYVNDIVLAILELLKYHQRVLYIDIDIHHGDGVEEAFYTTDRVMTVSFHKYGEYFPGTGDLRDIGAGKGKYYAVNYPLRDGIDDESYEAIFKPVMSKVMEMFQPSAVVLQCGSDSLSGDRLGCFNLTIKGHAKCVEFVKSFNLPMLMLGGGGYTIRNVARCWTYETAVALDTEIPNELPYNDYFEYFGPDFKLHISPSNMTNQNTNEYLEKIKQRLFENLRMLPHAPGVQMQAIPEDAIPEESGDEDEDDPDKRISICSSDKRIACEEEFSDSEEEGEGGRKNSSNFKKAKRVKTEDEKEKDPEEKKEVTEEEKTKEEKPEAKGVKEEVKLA
T2 sequence (Q9UKV0 whole entry): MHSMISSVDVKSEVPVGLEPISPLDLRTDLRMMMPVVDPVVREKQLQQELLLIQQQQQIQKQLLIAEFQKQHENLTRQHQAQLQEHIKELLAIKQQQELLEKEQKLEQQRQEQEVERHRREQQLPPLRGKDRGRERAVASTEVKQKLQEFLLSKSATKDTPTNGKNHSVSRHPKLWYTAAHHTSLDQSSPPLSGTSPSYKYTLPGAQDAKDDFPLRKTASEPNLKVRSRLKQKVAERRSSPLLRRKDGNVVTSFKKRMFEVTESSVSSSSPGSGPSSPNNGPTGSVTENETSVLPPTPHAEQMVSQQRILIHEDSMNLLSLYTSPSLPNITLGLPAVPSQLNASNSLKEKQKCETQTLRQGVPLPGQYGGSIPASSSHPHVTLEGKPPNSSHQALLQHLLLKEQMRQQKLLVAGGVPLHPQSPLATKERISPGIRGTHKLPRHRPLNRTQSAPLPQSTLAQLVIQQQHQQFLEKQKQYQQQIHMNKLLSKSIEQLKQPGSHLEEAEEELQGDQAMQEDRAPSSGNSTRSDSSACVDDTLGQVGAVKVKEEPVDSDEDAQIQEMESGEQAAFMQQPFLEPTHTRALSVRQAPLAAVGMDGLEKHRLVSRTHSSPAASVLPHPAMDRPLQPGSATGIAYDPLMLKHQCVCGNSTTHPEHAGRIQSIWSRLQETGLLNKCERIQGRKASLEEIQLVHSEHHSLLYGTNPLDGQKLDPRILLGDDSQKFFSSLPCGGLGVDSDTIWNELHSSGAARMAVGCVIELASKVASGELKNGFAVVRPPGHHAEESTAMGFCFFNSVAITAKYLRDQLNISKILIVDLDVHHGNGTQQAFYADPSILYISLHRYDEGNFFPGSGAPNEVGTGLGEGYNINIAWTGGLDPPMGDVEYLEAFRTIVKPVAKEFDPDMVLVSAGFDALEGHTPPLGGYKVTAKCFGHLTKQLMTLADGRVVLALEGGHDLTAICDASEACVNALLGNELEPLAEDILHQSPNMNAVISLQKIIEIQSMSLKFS
T6 sequence (Q9UQL6 whole entry): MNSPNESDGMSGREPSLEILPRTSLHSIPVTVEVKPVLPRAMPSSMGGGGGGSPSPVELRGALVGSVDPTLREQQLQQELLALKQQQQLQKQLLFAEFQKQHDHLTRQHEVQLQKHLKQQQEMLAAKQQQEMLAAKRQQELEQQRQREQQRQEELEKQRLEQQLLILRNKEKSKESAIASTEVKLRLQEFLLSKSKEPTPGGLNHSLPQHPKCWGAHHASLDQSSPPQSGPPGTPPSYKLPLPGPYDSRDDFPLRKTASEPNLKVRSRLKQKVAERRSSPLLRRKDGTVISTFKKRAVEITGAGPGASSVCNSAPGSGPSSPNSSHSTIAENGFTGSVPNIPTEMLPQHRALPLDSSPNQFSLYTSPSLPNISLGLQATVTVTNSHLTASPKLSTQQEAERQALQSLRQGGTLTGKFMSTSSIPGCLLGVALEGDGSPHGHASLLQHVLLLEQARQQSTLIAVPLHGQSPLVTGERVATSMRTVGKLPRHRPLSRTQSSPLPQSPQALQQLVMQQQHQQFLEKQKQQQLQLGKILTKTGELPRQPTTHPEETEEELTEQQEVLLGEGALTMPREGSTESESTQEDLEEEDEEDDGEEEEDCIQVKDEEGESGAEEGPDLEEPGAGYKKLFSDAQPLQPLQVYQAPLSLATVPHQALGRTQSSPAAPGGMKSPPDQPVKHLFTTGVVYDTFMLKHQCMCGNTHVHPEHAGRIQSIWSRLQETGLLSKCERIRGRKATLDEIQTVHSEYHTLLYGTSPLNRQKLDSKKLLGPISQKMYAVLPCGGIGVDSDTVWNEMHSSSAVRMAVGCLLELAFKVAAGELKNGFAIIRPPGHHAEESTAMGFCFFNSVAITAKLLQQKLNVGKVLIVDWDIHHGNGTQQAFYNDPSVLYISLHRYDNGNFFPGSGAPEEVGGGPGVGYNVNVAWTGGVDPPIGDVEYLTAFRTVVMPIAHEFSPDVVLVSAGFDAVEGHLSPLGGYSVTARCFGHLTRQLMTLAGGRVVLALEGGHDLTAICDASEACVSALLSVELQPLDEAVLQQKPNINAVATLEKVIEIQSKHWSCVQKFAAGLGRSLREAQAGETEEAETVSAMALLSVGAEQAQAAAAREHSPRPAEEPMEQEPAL

HDAC 8 inhibitory activity [1] [%] | HDAC 9 inhibitory activity [2] [%] | HDAC 2 inhibitory activity [3] [%] | HDAC 10 inhibitory activity [4] [%] | HDAC 3 inhibitory activity [5] [%] | HDAC 5 inhibitory activity [6] [%] | HDAC 1 inhibitory activity [7] [%] | SMILES
0 | 24.3 | 41.3 | 56.3 | 15.8 | 0 | 47 | O=C(Nc1ccccc1)c1ccc(CNC(=O)c2coc(-c3ccccc3O)n2)cc1 [Example 15, 2-(2-Hydroxyphenyl)-N-(4-(phenylcarbamoyl)benzyl)oxazole-4-carboxamide]
15.0 | 14.2 | 32.0 | 54.7 | 36.9 | 12.5 | 25.5 | O=C(CNC(=O)c1coc(-c2ccccc2O)n1)Nc1ccccc1 [Example 16, 2-(2-Hydroxyphenyl)-N-(2-oxo-2-(phenylamino)ethyl)oxazole-4-carboxamide]
